Source: ChEMBL document CHEMBL1201862, “PubChem BioAssay data set” (2004)
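Cells were grown in 96-well plates and exposed to each compound for 48 hours at five concentrations; endpoints were interpolated linearly between bracketing concentrations, or set to the highest concentration if not reached. GI50 is the concentration that inhibits growth by half.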 The source made the active and inactive calls. Rule as the data show it: active = GI50 up to about 1.1 µM and inactive = higher.

What was measured:
Test in all cases: NCI anticancer screen, dose series, 48 h
786-0 = test system: 786-0
CAKI-1 = test system: CAKI-1
COLO 205 = test system: COLO 205
DLD-1 = test system: DLD-1
HL-60 = test system: HL-60
HT-29 = test system: HT-29
IGROV-1 = test system: IGROV-1
K562 = test system: K562
M19-MEL = test system: M19-MEL
MOLT-4 = test system: MOLT-4
SF-539 = test system: SF-539
SNB-75 = test system: SNB-75
SNB-78 = test system: SNB-78
UACC-257 = test system: UACC-257
UO-31 = test system: UO-31
SF-268 = test system: SF-268
SK-MEL-28 = test system: SK-MEL-28

Measured: GI50

CSc1nc(NC2OCC(OC(C)=O)C(OC(C)=O)C2OC(C)=O)c(/N=C(\C)C(C)=O)c(=O)n1C (centres undefined)
inactive: 786-0 > 100 µM | CAKI-1 > 100 µM | COLO 205 > 100 µM | DLD-1 > 100 µM | HL-60 > 100 µM | HT-29 > 100 µM | IGROV-1 > 100 µM | K562 > 100 µM | M19-MEL > 100 µM | MOLT-4 > 100 µM | SF-539 > 100 µM | SNB-75 > 100 µM | SNB-78 > 100 µM | UACC-257 > 100 µM | UO-31 > 100 µM

CCOC(=O)Cc1nc2ccc3c(c2nc1O)C(=O)c1ccccc1C3=O
inactive: 786-0 65.6 µM | CAKI-1 14.6 µM | COLO 205 > 100 µM | DLD-1 23.7 µM | HT-29 > 100 µM | IGROV-1 16.9 µM | K562 32.4 µM | M19-MEL 78.2 µM | MOLT-4 5.45 µM | SF-268 38.5 µM | SF-539 76.4 µM | SK-MEL-28 > 100 µM | SNB-75 62.7 µM | SNB-78 70.5 µM | UACC-257 65.8 µM | UO-31 35.4 µM

COc1cccc(-c2cc(=O)c3cc(C)c(C)c(C(=O)O)c3o2)c1
inactive: 786-0 > 100 µM | COLO 205 > 100 µM | DLD-1 > 100 µM | HL-60 > 100 µM | HT-29 > 100 µM | IGROV-1 > 100 µM | K562 > 100 µM | M19-MEL > 100 µM | MOLT-4 > 100 µM | SF-268 > 100 µM | SF-539 > 100 µM | SK-MEL-28 > 100 µM | SNB-75 16.9 µM | SNB-78 > 100 µM | UACC-257 > 100 µM | UO-31 > 100 µM

Cc1ccc(Oc2ccc([N+](=O)[O-])cc2[N+](=O)[O-])c(C)c1
inactive: 786-0 71.8 µM | CAKI-1 29.8 µM | DLD-1 56.4 µM | HL-60 22.9 µM | HT-29 25.6 µM | IGROV-1 > 100 µM | K562 30.5 µM | M19-MEL 51.3 µM | MOLT-4 21.5 µM | SF-539 58.7 µM | SK-MEL-28 67.8 µM | SNB-75 37.5 µM | SNB-78 61.4 µM | UACC-257 26.1 µM | UO-31 40.5 µM

Cc1ccccc1C(=O)Oc1ccc(Oc2ccccc2)cc1
inactive: 786-0 > 100 µM | CAKI-1 72.9 µM | COLO 205 > 100 µM | DLD-1 > 100 µM | HL-60 18.2 µM | HT-29 > 100 µM | IGROV-1 > 100 µM | K562 > 100 µM | M19-MEL > 100 µM | MOLT-4 67 µM | SF-268 > 100 µM | SF-539 > 100 µM | SNB-75 > 100 µM | SNB-78 > 100 µM | UACC-257 > 100 µM | UO-31 20.3 µM

COC(=O)C12CC3CC(C1)CC(C(=O)OC)(C3)C2
inactive: 786-0 > 100 µM | CAKI-1 > 100 µM | DLD-1 > 100 µM | HL-60 55.8 µM | HT-29 > 100 µM | IGROV-1 > 100 µM | M19-MEL > 100 µM | MOLT-4 > 100 µM | SF-268 > 100 µM | SF-539 > 100 µM | SK-MEL-28 > 100 µM | SNB-75 > 100 µM | SNB-78 > 100 µM | UACC-257 > 100 µM | UO-31 > 100 µM

CC(=O)OC1CC2C(C)(C)OC(=O)CC(OC(C)=O)[C@]2(C)C2CCC3(C)C(=CCC3c3ccoc3)[C@]12C (some centres undefined)
inactive: 786-0 19.4 µM | CAKI-1 31.3 µM | COLO 205 14.1 µM | DLD-1 13 µM | HL-60 16.1 µM | HT-29 15.7 µM | IGROV-1 24.5 µM | K562 14 µM | M19-MEL 17.5 µM | MOLT-4 5.9 µM | SF-268 21.1 µM | SF-539 26.8 µM | SK-MEL-28 94.6 µM | SNB-75 18.3 µM | SNB-78 48.9 µM | UO-31 23.9 µM

O=c1nc(N2CCCC2)nc(N2CCCC2)s1
inactive: 786-0 > 100 µM | CAKI-1 97.9 µM | DLD-1 > 100 µM | HL-60 > 100 µM | HT-29 > 100 µM | IGROV-1 > 100 µM | K562 > 100 µM | M19-MEL > 100 µM | MOLT-4 > 100 µM | SF-268 > 100 µM | SF-539 > 100 µM | SK-MEL-28 > 100 µM | SNB-75 > 100 µM | SNB-78 > 100 µM | UACC-257 > 100 µM | UO-31 78.7 µM

Cc1ccc(S(=O)(=O)NC(=O)C2(Br)S(=O)(=O)OCCOS2(=O)=O)cc1
inactive: 786-0 > 100 µM | COLO 205 > 100 µM | DLD-1 > 100 µM | HL-60 > 100 µM | HT-29 > 100 µM | IGROV-1 > 100 µM | K562 > 100 µM | M19-MEL > 100 µM | MOLT-4 > 100 µM | SF-268 > 100 µM | SF-539 > 100 µM | SK-MEL-28 > 100 µM | SNB-75 > 100 µM | SNB-78 > 100 µM | UACC-257 > 100 µM | UO-31 > 100 µM

Cc1ccc(C)c(NC(=O)CC2SC(Nc3ccccc3Cl)=NC2=O)c1 (centres undefined)
inactive: 786-0 > 100 µM | CAKI-1 65.8 µM | COLO 205 > 100 µM | DLD-1 77.4 µM | HL-60 32.3 µM | HT-29 > 100 µM | IGROV-1 > 100 µM | M19-MEL 94.4 µM | MOLT-4 81.5 µM | SF-268 > 100 µM | SF-539 > 100 µM | SK-MEL-28 > 100 µM | SNB-75 55.7 µM | SNB-78 > 100 µM | UACC-257 55.3 µM | UO-31 75.9 µM

Cc1cnc[nH]c1=O
inactive: 786-0 > 100 µM | CAKI-1 > 100 µM | COLO 205 > 100 µM | DLD-1 > 100 µM | HL-60 > 100 µM | HT-29 > 100 µM | IGROV-1 > 100 µM | K562 > 100 µM | M19-MEL > 100 µM | MOLT-4 > 100 µM | SF-268 > 100 µM | SK-MEL-28 > 100 µM | SNB-75 > 100 µM | SNB-78 > 100 µM | UACC-257 > 100 µM | UO-31 > 100 µM

COc1ccc(-c2cc(=O)c3c(O)c(OC)c(O)c(OC)c3o2)cc1OC
inactive: 786-0 > 100 µM | COLO 205 92.3 µM | DLD-1 54.8 µM | HL-60 41.3 µM | HT-29 > 100 µM | IGROV-1 84.3 µM | K562 45.9 µM | M19-MEL > 100 µM | MOLT-4 42.3 µM | SF-268 90.2 µM | SF-539 46.2 µM | SK-MEL-28 > 100 µM | SNB-75 21.8 µM | SNB-78 42 µM | UACC-257 > 100 µM | UO-31 21.5 µM
